Results from patent US8415351B2 (priority 2007, dated 2013).

What was measured:
[1] = system: genotype 1a-H77 subgenomic replicon cell line; test: microbe, parasite or virus in culture; assay type: cell-based, HCV; conditions: Hepatitis C virus, read-out: EC50 1a
[2] = system: genotype 1b-Con1 subgenomic replicon cell line; test: microbe, parasite or virus in culture; assay type: cell-based, HCV; conditions: Hepatitis C virus, read-out: EC50 1b

COc1c(NS(C)(=O)=O)cc(-n2ccc(=O)[nH]c2=O)cc1-c1ccc2cc(NS(C)(=O)=O)ccc2c1 [IB-L0-2.75, N-(5-(2,4-dioxo-3,4-dihydropyrimidin-1(2H)-yl)-2-methoxy-3-(6-(methylsulfonamido)naphthalen-2-yl)phenyl)methanesulfonamide]
EC50 [1]: > 1000 nM
EC50 [2]: > 1000 nM

COc1c(N2Cc3ccc(NS(C)(=O)=O)cc3C2)cc(-n2ccc(=O)[nH]c2=O)cc1C(C)(C)C [IB-L0-2.79, N-(2-(3-tert-butyl-5-(2,4-dioxo-3,4-dihydropyrimidin-1(2H)-yl)-2-methoxyphenyl)isoindolin-5-yl)methanesulfonamide]
EC50 [1]: 100 to 1000 nM
EC50 [2]: 100 to 1000 nM

COc1c(/C=C/c2ccc(NS(C)(=O)=O)cc2)cc(-n2ccc(=O)[nH]c2=O)cc1C(C)(C)C [IB-L1-1.1, (E)-N-(4-(3-tert-butyl-5-(2,4-dioxo-3,4-dihydropyrimidin-1(2H)-yl)-2-methoxystyryl)phenyl)methanesulfonamide]
EC50 [1]: < 10 nM
EC50 [2]: < 10 nM

COc1c(/C=C/c2ccc(NS(C)(=O)=O)cc2C(=O)O)cc(-n2ccc(=O)[nH]c2=O)cc1C(C)(C)C [IB-L1-1.4, (E)-2-(3-tert-butyl-5-(2,4-dioxo-3,4-dihydropyrimidin-1(2H)-yl)-2-methoxystyryl)-5-(methylsulfonamido)benzoic acid]
EC50 [1]: 10 to 100 nM
EC50 [2]: < 10 nM

COc1c(/C=C/c2ccc(NS(C)(=O)=O)c(F)c2)cc(-n2ccc(=O)[nH]c2=O)cc1C(C)(C)C [IB-L1-1.5, (E)-N-(4-(3-tert-butyl-5-(2,4-dioxo-3,4-dihydropyrimidin-1(2H)-yl)-2-methoxystyryl)-2-fluorophenyl)methanesulfonamide]
EC50 [1]: 10 to 100 nM
EC50 [2]: < 10 nM

COc1c(/C=C/c2ccc(NS(C)(=O)=O)cc2C=O)cc(-n2ccc(=O)[nH]c2=O)cc1C(C)(C)C [IB-L1-1.6, N-(4-{(E)-2-[3-tert-Butyl-5-(2,4-dioxo-3,4-dihydro-2H-pyrimidin-1-yl)-2-methoxy-phenyl]-vinyl}-3-formyl-phenyl)-methanesulfonamide]
EC50 [1]: < 10 nM
EC50 [2]: < 10 nM

COC(=O)c1cc(NS(C)(=O)=O)ccc1/C=C/c1cc(-n2ccc(=O)[nH]c2=O)cc(C(C)(C)C)c1OC [IB-L1-1.7, (K)-methyl 2-(3-tert-butyl-5-(2,4-dioxo-3,4-dihydropyrimidin-1(2H)-yl)-2-methoxystyryl)-5-(methylsulfonamido)benzoate]
EC50 [1]: < 10 nM
EC50 [2]: < 10 nM

COc1c(/C=C/c2ccc(NS(C)(=O)=O)cc2C=NO)cc(-n2ccc(=O)[nH]c2=O)cc1C(C)(C)C [IB-L1-1.8, N-(4-{(E)-2-[3-tert-Butyl-5-(2,4-dioxo-3,4-dihydro-2H-pyrimidin-1-yl)-2-methoxy-phenyl]-vinyl}-3-(hydroxyimino-methyl)-phenyl)-methanesulfonamide]
EC50 [1]: 10 to 100 nM
EC50 [2]: < 10 nM

COCCNC(=O)c1cc(NS(C)(=O)=O)ccc1/C=C/c1cc(-n2ccc(=O)[nH]c2=O)cc(C(C)(C)C)c1OC [IB-L1-1.9, 2-{(E)-2-[3-tert-Butyl-5-(2,4-dioxo-3,4-dihydro-2H-pyrimidin-1-yl)-2-methoxy-phenyl]-vinyl}-5-methanesulfonylamino-N-(2-methoxy-ethyl)-benzamide]
EC50 [1]: 10 to 100 nM
EC50 [2]: < 10 nM

COc1c(/C=C/c2ccc(NS(C)(=O)=O)cc2CO)cc(-n2ccc(=O)[nH]c2=O)cc1C(C)(C)C [IB-L1-1.10, (E)-N-(4-(3-tert-butyl-5-(2,4-dioxo-3,4-dihydropyrimidin-1(2H)-yl)-2-methoxystyryl)-3-(hydroxymethyl)phenyl)methanesulfonamide]
EC50 [1]: < 10 nM
EC50 [2]: < 10 nM

CCOC(=O)c1cc(NS(C)(=O)=O)ccc1/C=C/c1cc(-n2ccc(=O)[nH]c2=O)cc(C(C)(C)C)c1OC [IB-L1-1.11, 2-{(E)-2-[3-tert-Butyl-5-(2,4-dioxo-3,4-dihydro-2H-pyrimidin-1-yl)-2-methoxy-phenyl]-vinyl}-5-methanesulfonylamino-benzoic acid ethyl ester]
EC50 [1]: 10 to 100 nM
EC50 [2]: < 10 nM

CC(C)(C)c1cc(-n2ccc(=O)[nH]c2=O)cc(/C=C/c2ccc(NS(C)(=O)=O)cc2)c1Cl [IB-L1-1.12, N-(4-{(E)-2-[3-tert-Butyl-2-chloro-5-(2,4-dioxo-3,4-dihydro-2H-pyrimidin-1-yl)-phenyl]-vinyl}-phenyl)-methanesulfonamide]
EC50 [1]: 10 to 100 nM
EC50 [2]: 10 to 100 nM

COCc1cc(NS(C)(=O)=O)ccc1/C=C/c1cc(-n2ccc(=O)[nH]c2=O)cc(C(C)(C)C)c1OC [IB-L1-1.13, (E)-N-(4-(3-tert-butyl-5-(2,4-dioxo-3,4-dihydropyrimidin-1(2H)-yl)-2-methoxystyryl)-3-(methoxymethyl)phenyl)methanesulfonamide]
EC50 [1]: 10 to 100 nM
EC50 [2]: < 10 nM

COc1c(/C=C/c2ccc(NS(C)(=O)=O)cc2C(=O)N(C)C)cc(-n2ccc(=O)[nH]c2=O)cc1C(C)(C)C [IB-L1-1.14, 2-{(E)-2-[3-tert-Butyl-5-(2,4-dioxo-3,4-dihydro-2H-pyrimidin-1-yl)-2-methoxy-phenyl]-vinyl}-5-methanesulfonylamino-N,N-dimethyl-benzamide]
EC50 [1]: 10 to 100 nM
EC50 [2]: < 10 nM

COc1c(/C=C/c2cc(F)c(NS(C)(=O)=O)cc2C)cc(-n2ccc(=O)[nH]c2=O)cc1C(C)(C)C [IB-L1-1.15, (E)-N-(4-(3-tert-butyl-5-(2,4-dioxo-3,4-dihydropyrimidin-1 (2H)-yl)-2-methoxystyryl)-2-fluoro-5-methylphenyl)methanesulfonamide]
EC50 [1]: < 10 nM
EC50 [2]: < 10 nM

COc1c(/C=C/c2ccc(NS(C)(=O)=O)cc2-c2ncc[nH]2)cc(-n2ccc(=O)[nH]c2=O)cc1C(C)(C)C [IB-L1-1.16, (E)-N-(4-(3-tert-butyl-5-(2,4-dioxo-3,4-dihydropyrimidin-1(2H)-yl)-2-methoxystyryl)-3-(1H-imidazol-2-yl)phenyl)methanesulfonamide]
EC50 [1]: 100 to 1000 nM
EC50 [2]: 10 to 100 nM

CNC(=O)c1cc(NS(C)(=O)=O)ccc1/C=C/c1cc(-n2ccc(=O)[nH]c2=O)cc(C(C)(C)C)c1OC [IB-L1-1.17, 2-{(E)-2-[3-tert-butyl-5-(2,4-dioxo-3,4-dihydro-2H-pyrimidin-1-yl)-2-methoxy-phenyl]-vinyl}-5-methanesulfonylamino-N-methyl-benzamide]
EC50 [1]: 10 to 100 nM
EC50 [2]: < 10 nM

COc1c(/C=C/c2ccc(NS(C)(=O)=O)cc2C(=O)N(C)C2CCS(=O)(=O)C2)cc(-n2ccc(=O)[nH]c2=O)cc1C(C)(C)C (stereo not drawn) [IB-L1-1.18, 2-{(E)-2-[3-tert-butyl-5-(2,4-dioxo-3,4-dihydro-2H-pyrimidin-1-yl)-2-methoxy-phenyl]-vinyl}-N-(1,1-dioxo-tetrahydro-1lambda*6*-thiophen-3-yl)-5-methanesulfonylamino-N-methyl-benzamide]
EC50 [1]: 10 to 100 nM
EC50 [2]: 10 to 100 nM

CO/N=C/c1cc(NS(C)(=O)=O)ccc1/C=C/c1cc(-n2ccc(=O)[nH]c2=O)cc(C(C)(C)C)c1OC [IB-L1-1.19]
EC50 [1]: 10 to 100 nM
EC50 [2]: < 10 nM

COc1c(/C=C/c2ccc(NS(C)(=O)=O)cc2)cc(-n2cc(Cl)c(=O)[nH]c2=O)cc1C(C)(C)C [IB-L1-1.20, N-(4-{(E)-2-[3-tert-butyl-5-(5-chloro-2,4-dioxo-3,4-dihydro-2H-pyrimidin-1-yl)-2-methoxy-phenyl]-vinyl}-phenyl)-methanesulfonamide]
EC50 [1]: 10 to 100 nM
EC50 [2]: < 10 nM

COc1c(/C=C/c2ccc(NS(C)(=O)=O)cc2C(N)=O)cc(-n2ccc(=O)[nH]c2=O)cc1C(C)(C)C [IB-L1-1.21, 2-{(E)-2-[3-tert-butyl-5-(2,4-dioxo-3,4-dihydro-2H-pyrimidin-1-yl)-2-methoxy-phenyl]-vinyl}-5-methanesulfonylamino-benzamide]
EC50 [1]: 10 to 100 nM
EC50 [2]: < 10 nM

COc1c(/C=C/c2ccc(NS(C)(=O)=O)cc2C(=O)N2CCC2)cc(-n2ccc(=O)[nH]c2=O)cc1C(C)(C)C [IB-L1-1.22, N-(3-(azetidine-1-carbonyl)-4-{(E)-2-[3-tert-butyl-5-(2,4-dioxo-3,4-dihydro-2H-pyrimidin-1-yl)-2-methoxy-phenyl]-vinyl}-phenyl)-methanesulfonamide]
EC50 [1]: 10 to 100 nM
EC50 [2]: < 10 nM

COc1c(/C=C/c2ccc(NS(C)(=O)=O)cc2C(=O)N2CCOCC2)cc(-n2ccc(=O)[nH]c2=O)cc1C(C)(C)C [IB-L1-1.23, (E)-N-(4-(3-tert-butyl-5-(2,4-dioxo-3,4-dihydropyrimidin-1(2H)-yl)-2-methoxystyryl)-3-(morpholine-4-carbonyl)phenyl)methanesulfonamide]
EC50 [1]: 100 to 1000 nM
EC50 [2]: < 10 nM

COCCN(C)C(=O)c1cc(NS(C)(=O)=O)ccc1/C=C/c1cc(-n2ccc(=O)[nH]c2=O)cc(C(C)(C)C)c1OC [IB-L1-1.24, 2-{(E)-2-[3-tert-butyl-5-(2,4-dioxo-3,4-dihydro-2H-pyrimidin-1-yl)-2-methoxy-phenyl]-vinyl}-5-methanesulfonylamino-N-(2-methoxy-ethyl)-N-methyl-benzamide]
EC50 [1]: 10 to 100 nM
EC50 [2]: < 10 nM

COc1c(/C=C/c2ccc(NS(C)(=O)=O)cc2COC(C)C)cc(-n2ccc(=O)[nH]c2=O)cc1C(C)(C)C [IB-L1-1.25, N-(4-{(E)-2-[3-tert-butyl-5-(2,4-dioxo-3,4-dihydro-2H-pyrimidin-1-yl)-2-methoxy-phenyl]-vinyl}-3-isopropoxymethyl-phenyl)-methanesulfonamide]
EC50 [1]: 10 to 100 nM
EC50 [2]: < 10 nM

COc1c(/C=C/c2ccc(NS(C)(=O)=O)cc2-c2ncco2)cc(-n2ccc(=O)[nH]c2=O)cc1C(C)(C)C [IB-L1-1.26, (E)-N-(4-(3-tert-butyl-5-(2,4-dioxo-3,4-dihydropyrimidin-1(2H)-yl)-2-methoxystyryl)-3-(oxazol-2-yl)phenyl)methanesulfonamide]
EC50 [1]: 10 to 100 nM
EC50 [2]: < 10 nM

COc1c(/C=C/c2ccc(NS(C)(=O)=O)cc2C(=O)N2CCCC2)cc(-n2ccc(=O)[nH]c2=O)cc1C(C)(C)C [IB-L1-1.27, N-[4-{(E)-2-[3-tert-butyl-5-(2,4-dioxo-3,4-dihydro-2H-pyrimidin-1-yl)-2-methoxy-phenyl]-vinyl}-3-(pyrrolidine-1-carbonyl)-phenyl]-methanesulfonamide]
EC50 [1]: 10 to 100 nM
EC50 [2]: < 10 nM
